Legend:
[1] = Stability of LM030 formulations stored at 50° C. for 7 days; type: physicochemical; details: summary of Table 7
[2] = General solubility and stability properties of LM030; type: physicochemical
Description: Difficulties in formulating LM030 for topical administration are described in U.S. Pat. No. 8,680,054. In particular, the solubility and stability properties of LM030 create challenges in developing a topical formulation with adequate storage stability that is also able to provide an effective amount of active agent available for skin penetration [See col 4, lines 16-23].

Compound: CC[C@H](C)[C@@H]1NC(=O)[C@H](Cc2ccc(O)cc2)N(C)C(=O)[C@H]([C@@H](C)CC)N2C(=O)[C@H](CC[C@H]2O)NC(=O)[C@H](CC(C)C)NC(=O)[C@@H](NC(=O)[C@H](CCC(N)=O)NC(=O)C(C)C)[C@@H](C)OC1=O [LM030]
- stability in the presence of aqueous solutions [1]: poor stability
- solubility in lipophilic excipients [2]: low
- solubility in polar organic solvents [2]: good
- solubility in water and aqueous buffers [2]: moderate
- stability in polar organic solvents [2]: poor

Source: patent US20230000945A1, “TOPICAL PHARMACEUTICAL FORMULATIONS OF A CYCLIC DEPSIPEPTIDE” (Lifemax Laboratories, Inc., priority 2020, published 2023)
